Active and inactive are the calls of the source.
Tests used:
[1] = Luminescence Cell-Based Dose-Confimation HTS to Identify Inhibitors of 5'UTR Stem-Loop Driven Alpha-Synuclein mRNA Translation in H4 Neuroglioblastoma Cells. [Related pubchem assays: 1827 (Project Summary), 1813 (Primary HTS)]; assay type: functional
[2] = target: Mothers against decapentaplegic homolog 3 (Homo sapiens, UniProt P84022); assay: SMAD3 transcription factor inhibitors, dose response (AID 715); assay type: functional
NADPH oxidase 1 = NADPH oxidase 1 (Homo sapiens, UniProt Q9Y5S8); assay type: functional, cell-based;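 further: Cell-based assay with luminescence read-out, IC50 derived from inhibitor dose-response curves; intracellular ROS from endogenous NOX1 in intact HT29 colon cancer cells; potency of inhibitors that lower the ROS luminescence signal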
NS3 = NS3 (Hepatitis C virus, UniProt A3EZJ3); assay: PubChem AID 2173; set-up: species or system Hepacivirus hominis
[3] = A Cell Based Secondary Assay To Explore Cytotoxicity of Compounds that Sensitize Mycobacterium Tuberculosis to Beta-Lactam Antibiotics.; assay type: functional
[4] = cytotoxicity in HEK-293T cells, dose response, cytotoxicity control for BCR NF-kB inhibitor project, luminescence, B-cell screen hits (AID 489021); assay type: functional, cell-based;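 further: HEK-293T cells carrying an NF-kB luciferase reporter; cells exposed to compound for about 14 hours before viability readout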
[5] = inhibitors of firefly luciferase expression or activity, dose response, H4 neuroglioma cells, luminescence (AID 1990); assay type: functional, cell-based
[6] = Luminescence Cell-Based Dose Response HTS to Identify Inhibitors of 5'UTR Stem-Loop Driven Prion Protein mRNA Translation in H4 Neuroglioblastoma Cells. [Related pubchem assays: 1827 (Project Summary), 1813 (Primary HTS)]; assay type: functional
[7] = luciferase reporter signal reduction – luminescence, H4-C neuroglioblastoma cells, dose response (AID 2458); assay type: functional, cell-based;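 further: H4 neuroglioblastoma cells stably carrying a luciferase reporter gene fusion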
[8] = inhibitors of SNCA 5'UTR-driven reporter translation, confirmation, H4 neuroglioma cells, luminescence (AID 1988); assay type: functional, cell-based
[9] = inhibitors of SNCA 5'UTR-driven translation, confirmation, luminescence, H4 neuroglioblastoma cells, dose confirmation (AID 2454); assay type: functional, cell-based;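 further: H4 neuroglioblastoma cells carrying an alpha-synuclein 5'UTR luciferase reporter; potency for inhibition of the luciferase signal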
cells = assay type: functional, cell-based
HeLa = assay: Cytotoxicity counterscreen assay for transcriptional activators of heat shock protein 70 (Hsp70). [Related pubchem assays: 1203, 1252 ]; assay type: functional; conditions: Homo sapiens;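 further: cells exposed to compound for 16 hours before readout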
[10] = target: G2/mitotic-specific cyclin-B1 (Homo sapiens, UniProt P14635); assay: Counterscreen assay for inhibitors of Wee1 degradation: dose response cell-based assay to identify inhibitors of cyclin B degradation. [Related pubchem assays: 1410, 1321 ]; assay type: functional
Wee1-like protein kinase = Wee1-like protein kinase (Homo sapiens, UniProt P30291); assay: Dose Response Cell-based Assay for Inhibitors of Wee1 Degradation. [Related pubchem assays: 1410, 1321 ]; assay type: functional
[11] = Glucagon-like peptide 1 release potency, NCI-H716 cell line, dose-response, half-maximal inhibitory concentration (AID 1117344); assay type: functional, cell-based
[12] = HeLa 4N DNA content increase, dose response, cell-based, IC50 (AID 1117351); assay type: functional
[13] = HeLa 2N DNA content increase, dose response, cell-based, IC50 (AID 1117349); assay type: functional
[14] = half-maximal inhibitory concentration for glucagon-like peptide-1 release, STC-1 cell line, dose-response (AID 1117345); assay type: functional, cell-based
[15] = target: Serine/threonine-protein phosphatase (Homo sapiens, UniProt Q9BPW0); assay: Counterscreen for inhibitors of PP1: fluorescence-based biochemical high throughput dose response assay to identify inhibitors of Protein Phosphatase 5 (PP5). [Related pubchem assays: 2034 (Summary (PP5 inhibitors)), 1987 (PP5 inhibitors in singlate), 2235 (PP1 inhibitors in singlate)]
Serine/threonine-protein phosphatase, sequence (Q9BPW0 whole entry): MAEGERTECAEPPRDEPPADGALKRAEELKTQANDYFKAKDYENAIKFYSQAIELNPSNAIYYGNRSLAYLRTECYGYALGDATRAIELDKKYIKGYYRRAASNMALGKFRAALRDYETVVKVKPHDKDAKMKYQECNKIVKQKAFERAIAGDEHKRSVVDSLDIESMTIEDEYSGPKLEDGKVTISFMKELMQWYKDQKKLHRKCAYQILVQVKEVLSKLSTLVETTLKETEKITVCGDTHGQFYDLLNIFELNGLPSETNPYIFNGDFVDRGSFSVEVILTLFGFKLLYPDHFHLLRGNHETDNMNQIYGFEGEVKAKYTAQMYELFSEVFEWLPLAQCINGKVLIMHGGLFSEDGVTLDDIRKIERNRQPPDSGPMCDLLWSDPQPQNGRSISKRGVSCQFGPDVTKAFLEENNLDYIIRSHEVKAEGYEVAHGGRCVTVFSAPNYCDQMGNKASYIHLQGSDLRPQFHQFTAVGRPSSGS

NS3, sequence (A3EZJ3 whole entry): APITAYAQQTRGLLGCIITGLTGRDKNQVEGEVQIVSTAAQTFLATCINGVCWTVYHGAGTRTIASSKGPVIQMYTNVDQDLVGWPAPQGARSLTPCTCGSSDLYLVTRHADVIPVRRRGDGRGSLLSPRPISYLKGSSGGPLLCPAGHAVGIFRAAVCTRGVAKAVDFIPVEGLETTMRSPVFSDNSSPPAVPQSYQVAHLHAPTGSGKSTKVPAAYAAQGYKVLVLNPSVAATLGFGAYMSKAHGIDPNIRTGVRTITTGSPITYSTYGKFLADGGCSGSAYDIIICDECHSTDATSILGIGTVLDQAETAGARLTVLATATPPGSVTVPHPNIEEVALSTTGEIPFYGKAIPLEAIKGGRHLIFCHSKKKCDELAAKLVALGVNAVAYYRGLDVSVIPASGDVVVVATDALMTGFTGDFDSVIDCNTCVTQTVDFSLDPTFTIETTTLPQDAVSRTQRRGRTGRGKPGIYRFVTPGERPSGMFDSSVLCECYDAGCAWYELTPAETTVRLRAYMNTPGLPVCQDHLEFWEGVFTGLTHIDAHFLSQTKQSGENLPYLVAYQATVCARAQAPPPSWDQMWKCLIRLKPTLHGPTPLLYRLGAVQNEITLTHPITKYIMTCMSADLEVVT
Wee1-like protein kinase, sequence (P30291 whole entry): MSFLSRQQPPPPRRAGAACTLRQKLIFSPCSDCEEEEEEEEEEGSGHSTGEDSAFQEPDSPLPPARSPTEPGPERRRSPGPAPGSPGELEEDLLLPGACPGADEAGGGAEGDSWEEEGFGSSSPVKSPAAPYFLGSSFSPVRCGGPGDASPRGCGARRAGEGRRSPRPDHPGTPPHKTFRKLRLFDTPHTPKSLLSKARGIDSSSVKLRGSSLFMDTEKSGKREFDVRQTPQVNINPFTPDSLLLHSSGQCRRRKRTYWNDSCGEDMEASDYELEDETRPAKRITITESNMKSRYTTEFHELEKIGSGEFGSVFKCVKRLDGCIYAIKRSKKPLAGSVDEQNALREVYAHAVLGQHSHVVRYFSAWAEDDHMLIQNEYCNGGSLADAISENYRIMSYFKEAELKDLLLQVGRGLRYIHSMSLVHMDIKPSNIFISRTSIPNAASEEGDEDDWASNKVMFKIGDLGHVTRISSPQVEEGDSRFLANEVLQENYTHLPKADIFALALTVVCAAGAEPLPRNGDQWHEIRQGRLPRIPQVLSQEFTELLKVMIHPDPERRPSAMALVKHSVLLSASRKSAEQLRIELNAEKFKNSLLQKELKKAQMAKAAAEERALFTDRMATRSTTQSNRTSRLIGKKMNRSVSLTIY
Mothers against decapentaplegic homolog 3, sequence (P84022 whole entry): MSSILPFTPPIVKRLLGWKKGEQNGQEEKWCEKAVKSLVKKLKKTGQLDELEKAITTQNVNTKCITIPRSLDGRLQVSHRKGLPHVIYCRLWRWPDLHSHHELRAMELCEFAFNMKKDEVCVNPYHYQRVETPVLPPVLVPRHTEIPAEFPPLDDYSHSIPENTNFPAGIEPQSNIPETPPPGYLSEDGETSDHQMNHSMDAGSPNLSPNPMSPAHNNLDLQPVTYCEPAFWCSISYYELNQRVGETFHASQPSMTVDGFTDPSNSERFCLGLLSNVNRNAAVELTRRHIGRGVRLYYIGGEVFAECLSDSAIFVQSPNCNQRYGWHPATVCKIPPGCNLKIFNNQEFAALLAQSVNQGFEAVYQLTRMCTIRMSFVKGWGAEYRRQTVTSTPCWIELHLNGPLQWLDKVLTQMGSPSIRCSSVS
G2/mitotic-specific cyclin-B1, sequence (P14635 whole entry): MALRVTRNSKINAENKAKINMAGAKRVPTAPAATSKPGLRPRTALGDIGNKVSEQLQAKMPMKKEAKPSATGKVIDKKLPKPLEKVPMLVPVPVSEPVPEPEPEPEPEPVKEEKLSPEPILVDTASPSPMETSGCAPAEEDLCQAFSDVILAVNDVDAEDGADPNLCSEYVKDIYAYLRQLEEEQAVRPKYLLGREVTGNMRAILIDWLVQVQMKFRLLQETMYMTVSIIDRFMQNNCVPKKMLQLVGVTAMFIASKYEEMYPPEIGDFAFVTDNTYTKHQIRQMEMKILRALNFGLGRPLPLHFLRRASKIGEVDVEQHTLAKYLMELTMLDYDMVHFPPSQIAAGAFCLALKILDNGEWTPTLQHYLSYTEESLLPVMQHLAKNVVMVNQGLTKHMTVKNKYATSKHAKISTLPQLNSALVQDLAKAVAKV
NADPH oxidase 1, sequence (Q9Y5S8 whole entry): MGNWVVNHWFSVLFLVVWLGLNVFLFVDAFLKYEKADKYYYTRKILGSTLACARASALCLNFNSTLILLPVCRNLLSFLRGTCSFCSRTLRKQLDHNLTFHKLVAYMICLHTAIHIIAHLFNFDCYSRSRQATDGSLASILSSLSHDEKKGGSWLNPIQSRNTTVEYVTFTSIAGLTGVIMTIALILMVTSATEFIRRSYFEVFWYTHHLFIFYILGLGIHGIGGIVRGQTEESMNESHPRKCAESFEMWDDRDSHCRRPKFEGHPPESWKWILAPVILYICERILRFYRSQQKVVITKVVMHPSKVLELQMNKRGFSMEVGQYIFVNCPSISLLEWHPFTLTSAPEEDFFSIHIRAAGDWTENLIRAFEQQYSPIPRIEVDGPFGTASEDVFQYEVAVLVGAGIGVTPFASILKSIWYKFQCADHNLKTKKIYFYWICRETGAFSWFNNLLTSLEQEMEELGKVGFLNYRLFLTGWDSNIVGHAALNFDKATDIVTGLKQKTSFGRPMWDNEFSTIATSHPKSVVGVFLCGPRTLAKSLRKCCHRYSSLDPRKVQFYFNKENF

SMILES: COc1ccc(C)cc1-n1nnnc1SCc1nc(N)nc(N(C)C)n1
- EC50 [1]: 20.5 µM (active)

SMILES: Cc1cccc(CSc2nc3c(cc2C#N)CCC3)c1
- IC50 [2]: 18.5 µM (active)

SMILES: COc1ccc(-c2nc(-c3ccccc3)c(-c3ccccc3)[nH]2)cc1OC
- IC50 (NADPH oxidase 1): > 17 µM (not active)

SMILES: COc1ccc(C2C(C(=O)c3ccc4c(c3)OCCO4)=C(O)C(=O)N2c2nc(C)c(C(C)=O)s2)cc1 (stereo not given)
- IC50 (NS3): 5.13 µM (active)

SMILES: COC(=O)c1c(C)n(-c2ccc(C)cc2)c2ccc(O)cc12
- CC50 [3]: > 40 µM (active)

SMILES: Nc1ccc(-c2cc3ccccc3oc2=O)cc1
- IC50 [4]: > 80 µM (inactive)
- EC50 [5]: < 0.1 µM (active)
- EC50 [6]: < 0.1 µM (active)
- EC50 [7]: 0.125 µM (active)
- EC50 [8]: < 0.1 µM (active)
- EC50 [9]: 0.156 µM (active)
- EC50 (cells): 0.215 µM (active)

SMILES: N#Cc1ccc(NC(=O)c2nc(-c3ccccc3)n(-c3ccccc3)n2)cc1
- CC50 (HeLa): > 99 µM (not active)

SMILES: CCN(CC)c1ccc(/C=N/NC(=O)c2cnccn2)cc1
- EC50 [10]: > 49.7 µM (not active)
- EC50 (Wee1-like protein kinase): > 49.7 µM (not active)

SMILES: C[C@@]12C(=O)OC(=O)[C@]1(C)C1CCC2O1
- IC50 [11]: 6.68 µM (inactive)
- IC50 [12]: > 10 µM (inactive)
- IC50 [13]: > 10 µM (inactive)
- IC50 [14]: 13.7 µM (inactive)
- IC50 [15]: 0.239 µM (active)

Source: ChEMBL document CHEMBL1201862, “PubChem BioAssay data set” (2004)
